In patent publication US20070128727A1, “Methods for differentiation of embryonic stem cells” (priority 2005, published 2007):

Experiments:
Format in all cases: cell-based, mouse
[1] = test system: fully differentiated and induced cells (adipocytes from MESC); assay: Hormone induced lipolysis (glycerol release into medium); settings: 4 hr in glucose-free DMEM; isoproterenol increasing concentrations; dibutyryl-cAMP 10^-3 M; forskolin 4×10^-5 M
Procedure: FIG. 4. Hormone induced lipolysis. Fully differentiated and induced cells were treated with increasing concentrations of isoproterenol in glucose-free DMEM containing 30 mg/ml of fatty acid free albumin and adenosine deaminase (1 U/ml) for 4 hr. The control samples were incubated with 10^−5 M N-(2-phenylisopropyl)-adenosine to replace the endogenous adenosine. The amount of glycerol in the medium was measured using a calorimetric kit. Differentiated and induced cells incubated with isoproterenol in 35 mm wells. B. Differentiated cells with or without induction cultures were incubated with 10^−3 M dibutyryl-cAMP or 4×10^−5 M forskolin in 60 mm diameter culture plates.

[2] = test system: embryoid body cultures from E14Tg2A cells; assay: Osteoblast differentiation, real time RT-PCR of osteoblast marker mRNA; settings: day 31 cultures
Procedure: Two days afterwards, the droplets containing EBs were collected by adding medium to the cover and equally distributed onto 2 gelatinized (precoated with 0.1% gelatin) 100 mm petri dishes. Without treating with ATRA, the attached EBs were incubated in the induction medium containing 10^−7 M insulin and 2×10^−9 M T3 for 5 days.
After that, 0.3 mM of ascorbic acid phosphate (magnesium salt, Waco Chemicals, Dallas, Tex.) and 10 mM of β-glycerophosphate (Sigma-Aldrich Chemicals, St. Louis, Mo.) were added to the induction medium for an additional 9 days. At day 14, cultures were trypsinized to remove the cells and plated on to gelatin-coated 6-well culture plates at a density of 10^4 cells/cm^2. Three days after, at day 17, DEX at 10^−8 M was added to some of the wells to further induce osteoblast differentiation. Medium was replaced every 2 days throughout the culture period.
The cultures were terminated 2 weeks after at day 31 and stained for alkaline phosphatase (ALP) activity using a kit from Sigma following manufacturer's procedure (procedure No. 85). In this procedure, cells containing ALP activity, an osteoblast maker, appear in blue color. […]

Differentiated MESC = assay: Gene expression profile by Taqman real time PCR in differentiated MESC
Procedure: Two days afterwards, the droplets containing EBs were collected by adding medium to the cover and equally distributed onto 2 gelatinized (precoated with 0.1% gelatin) 100 mm petri dishes. The attached EBs were treated with 10^−6 M ATRA (all-trans retinoic acid) for 3 days to initiate differentiation. Medium was then changed into growth medium with 10^−7 M insulin and 2×10^−9 M of triiodothyronine (T3) (induction medium) to continue adipocyte differentiation. Medium was changed every two days. At day 10, further stimulation of induction was made by the addition of an induction cocktail [0.5 mM isobutylmethylxanthine (IBMX), 0.1 μM dexamethasone (DEX) and 1 μM of insulin]. After treating the cells for 8 days, cells were removed from the dish, counted with a hemocytometer and plated onto gelatinized 6-well culture plates at 10^4/cm^2. Cells with minute lipid droplets (adipocytes) appeared in two days. The number of the adipocytes and the size of droplets increased over time and reached a plateau at day 10.
ATRA treated cultures and vehicle treated control cultures underwent the same differentiation process as described in the Methods. […] Total RNA was extracted, and reverse-transcribed. The relative mass of specific RNA was calculated by the comparative cycle of threshold detection method according to the manufacturer's instruction. Two independent experiments were performed using different RNA preparations from the cultures; each run of PCR was conducted in triplicate. The expression of adipocyte markers was increased while some of the osteoblast markers were decreased.

[3] = test system: embryoid bodies from E14Tg2A embryonic stem cells; assay: Differentiation of adipocytes from embryoid bodies (oil-red-O staining, morphology); settings: ATRA treated vs vehicle treated cultures, same differentiation process
Procedure: (§1) Mouse embryonic stem (ES) cells were used as the source of embryoid bodies (EBs). E14Tg2A cells were trypsinized and made into suspension in Glasgow Minimum essential medium containing 10% fetal bovine serum (growth medium). Cells were counted under a microscope using a haemocytometer, and were diluted to a concentration on 10^5 cells/mi. During cell passages, 1000 U/ml of leukemia inhibitory factor (LIF) was added to prevent differentiation.
To make EBs, cell suspensions after trypsinization were made into hanging droplets (20 μl) onto the cover of a bacteriological petri dish. The bottom of the dish was filled with PBS.
20 μl droplets of cells in suspension were pipetted onto the cover of a 100 mm bacteriological petri dish. […]
Two days afterwards, the droplets containing EBs were collected by adding medium to the cover and equally distributed onto 2 gelatinized (precoated with 0.1% gelatin) 100 mm petri dishes. […] After treating the cells for 8 days, cells were removed from the dish, counted with a hemocytometer and plated onto gelatinized 6-well culture plates at 10^4/cm^2. […]
ATRA treated cultures and vehicle treated control cultures underwent the same differentiation process as described in the Methods. […] The relative mass of specific RNA was calculated by the comparative cycle of threshold detection method according to the manufacturer's instruction. […]

MESC = assay: ATRA effects on growth of MESC (Alamar blue cell proliferation); settings: ATRA 10^-6 M for three days, vs 0.1% DMSO vehicle, 500 cells/well
Procedure: as §1
FIG. 1. ATRA effects on growth of MESC. Cells were plated at 500/well in a 96-well culture plate. Starting on day 1, they were treated with ATRA (10^−6 M) for three days with replacement of fresh media each day. Control samples were treated with 0.1% DMSO (vehicle). At each indicated day, Alamar blue (10 μl/0.1 ml), an indicator for cell proliferation detection, was added to each well and the fluorescence generated was read after 4 hours.

CCCC(=O)Nc1ncnc2c1ncn2[C@@H]1O[C@@H]2COP(=O)(O)O[C@H]2[C@H]1OC(=O)CCC [dibutyryl-cAMP]
glycerol release (lipolysis) [1]: dose-dependent increase of glycerol release

C[C@@H]1C[C@H]2[C@@H]3CCC4=CC(=O)C=C[C@]4(C)[C@@]3(F)[C@@H](O)C[C@]2(C)[C@@]1(O)C(=O)CO [DEX, dexamethasone]
increase in expression of ALP mRNA [2]: ~2 fold
increase in expression of osteocalcin mRNA [2]: 8 fold

CC(C)NCC(O)c1ccc(O)c(O)c1 (stereo not shown) [isoproterenol]
glycerol release (lipolysis) [1]: dose-dependent increase of glycerol release

CC1=C(/C=C/C(C)=C/C=C/C(C)=C/C(=O)O)C(C)(C)CCC1 [ATRA, all-trans retinoic acid]
ALBP expression, Fold Change (ATRA/Control) (Differentiated MESC; adipocyte marker): +53.2 ± 0.09 fold
HSL expression, Fold Change (ATRA/Control) (Differentiated MESC; adipocyte marker): +2.39 ± 0.17 fold
PPAR-γ expression, Fold Change (ATRA/Control) (Differentiated MESC; adipocyte marker): +1.72 ± 0.42 fold
ALP expression, Fold Change (ATRA/Control) (Differentiated MESC; osteoblast marker): −2.54 ± 0.03 fold
Collagen type 1α expression, Fold Change (ATRA/Control) (Differentiated MESC; osteoblast marker): +6.27 ± 0.26 fold
Osteocalcin expression, Fold Change (ATRA/Control) (Differentiated MESC; osteoblast marker): −5.28 ± 0.05 fold
Osteonectin expression, Fold Change (ATRA/Control) (Differentiated MESC; osteoblast marker): +2.02 ± 0.25 fold
formation of adipocytes at end of culture [3]: formed numerous fully differentiated adipocytes
cell number (Alamar blue fluorescence) (MESC): significant lowering of the cell number was only seen at day 3
